The series has as its system GENE-TOX genotoxicity assays, various organisms and cells. Kind of series: GENE-TOX mutagenicity studies. As to conditions: for call: Assay Type: In vivo carcinogenicity studies.
The mark [1] stands for this setting: Species/Cell Type: Nonhuman, Assay Code: CCG+, Evaluation Type: Evaluation A (Pre-1980).
Setting [2] is: Species/Cell Type: Nonhuman, Assay Type: Sister-chromatid exchange (SCE) in vitro, Assay Code: SC2+D, Dose Response: With dose response, Evaluation Type: Evaluation B (Post-1980).
Where [3] appears, read: Species/Cell Type: Salmonella typhimurium (one or more of the five standard strains: TA98, TA100, TA1535, TA1537, and TA1538), Assay Type: Histidine reverse gene mutation, Ames assay, Assay Code: SAL+*, Activation: With metabolic activation, Evaluation Type: Evaluation A (Pre-1980).
[4] abbreviates: Species/Cell Type: Salmonella typhimurium (one or more of the five standard strains: TA98, TA100, TA1535, TA1537, and TA1538), Assay Type: Histidine reverse gene mutation, Ames assay, Assay Code: SAL-, Evaluation Type: Evaluation A (Pre-1980).
Setting [5] is: Species/Cell Type: Mammalian polychromatic erythrocytes, Assay Type: Micronucleus test, chromosome aberrations, Assay Code: MNTT, Evaluation Type: Evaluation B (Post-1980).
Where [6] appears, read: Species/Cell Type: Human diploid fibroblasts, Assay Type: Unscheduled DNA synthesis (UDS) in vitro, DNA effects, Assay Code: UDH-, Evaluation Type: Evaluation A (Pre-1980).
[7] abbreviates: Species/Cell Type: Salmonella typhimurium (one or more of the five standard strains: TA98, TA100, TA1535, TA1537, and TA1538), Assay Type: Histidine reverse gene mutation, Ames assay, Assay Code: SAL+, Evaluation Type: Evaluation A (Pre-1980).
The mark [8] stands for this setting: Species/Cell Type: Syrian hamster embryo (SA7/SHE) cells, Assay Type: Cell transformation, viral enhanced, Assay Code: CT7+, Evaluation Type: Evaluation A (Pre-1980).
Setting [9] is: Species/Cell Type: Human, Assay Type: Sister-chromatid exchange (SCE) in vitro, Assay Code: SC1T, Evaluation Type: Evaluation B (Post-1980).
Setting [10] is: Species/Cell Type: Salmonella typhimurium (one or more of the five standard strains: TA98, TA100, TA1535, TA1537, and TA1538), Assay Type: Histidine reverse gene mutation, Ames assay, Assay Code: SALT, Evaluation Type: Evaluation A (Pre-1980).
Where [11] appears, read: Species/Cell Type: Bacillus subtilis (H17 vs M45), Assay Type: Rec-assay, spot test, DNA effects (bacterial DNA repair), Assay Code: REW+, Evaluation Type: Evaluation A (Pre-1980).

The source made the active and inactive calls. How the calls were made is not given here.

For the molecule `COc1cc(-c2ccc(N)c(OC)c2)ccc1N`, the mutagenic call runs as follows: (Species/Cell Type: Escherichia coli polA (W3119 vs P3478), Assay Type: Rec-assay, DNA effects (bacterial DNA repair), Assay Code: RE1T, Evaluation Type: Evaluation A (Pre-1980)) “no conclusion”; (Species/Cell Type: Human diploid fibroblasts, Assay Type: Unscheduled DNA synthesis (UDS) in vitro, DNA effects, Assay Code: UDH+*, Activation: With metabolic activation, Evaluation Type: Evaluation A (Pre-1980)) “active; positive”; under setting [2], “active; positive”; under setting [3], “active; positive”. The call under setting [1] was “active; positive”. On to `O=C(O)CC(O)(CC(=O)O)C(=O)O`, for which the mutagenic call (Species/Cell Type: Mammalian polychromatic erythrocytes, Assay Type: Micronucleus test, chromosome aberrations, Assay Code: MNT+, Evaluation Type: Evaluation B (Post-1980)) was “active; positive”.

For the molecule `COC([CH2][Hg+])CNC(=O)C1CCC(C)(C(=O)[O-])C1(C)C.O=C([O-])C[S-].[H+].[H+]` (configuration not stated), for the setting “Species/Cell Type: Mammalian oocytes or early embryo, Assay Type: Chromosome aberrations in vivo, Assay Code: CYO-, Evaluation Type: Evaluation A (Pre-1980)”, the mutagenic call was “inactive; negative”. Take `CCCCO`: the mutagenic call was “inactive; negative” (Species/Cell Type: Nonhuman, Assay Type: Sister-chromatid exchange (SCE) in vitro, Assay Code: SC2-, Evaluation Type: Evaluation A (Pre-1980)) and “inactive; negative” under setting [4]. On to `CN(C)c1ccc(C#N)cc1`, for which the mutagenic call under setting [5] was “no conclusion”. Take `COc1ccc2nc3cc(Cl)ccc3c(NCCCNCCCl)c2c1`: the mutagenic call (Species/Cell Type: Chinese hamster ovary (CHO) cells, Assay Type: Forward gene mutation at the HPRT locus, Assay Code: CHO+D, Dose Response: With dose response, Evaluation Type: Evaluation A (Pre-1980)) is “active; positive”; the mutagenic call under setting [6] was “inactive; negative”; the mutagenic call (Species/Cell Type: Saccharomyces cerevisiae, Assay Type: Forward and reverse gene mutation, mitotic recombination and gene conversion, host-mediated assay, Assay Code: HME+, Evaluation Type: Evaluation A (Pre-1980)) is “active; positive”; the mutagenic call (Species/Cell Type: Saccharomyces cerevisiae, Assay Type: Mitotic recombination or gene conversion, Assay Code: YEC+, Evaluation Type: Evaluation A (Pre-1980)) is “active; positive”; the mutagenic call under setting [7] is “active; positive”. In addition, for the setting “Species/Cell Type: Nonhuman, Assay Code: CCGT, Evaluation Type: Evaluation A (Pre-1980)”, the call is reported as “no conclusion”. As to `C1CNCCN1`, the mutagenic call (Species/Cell Type: Salmonella typhimurium, Assay Type: Forward and reverse gene mutation, host-mediated assay, Assay Code: HMA+, Evaluation Type: Evaluation A (Pre-1980)) was “active; positive”. For the molecule `COC(=O)COc1ccc(Cl)cc1C`, where the note is “Species/Cell Type: Saccharomyces cerevisiae, Assay Type: Reverse gene mutation, Assay Code: YER+, Evaluation Type: Evaluation A (Pre-1980)”, the mutagenic call was “active; positive”. `COc1ccc2nc3cc(Cl)ccc3c(NCCCNCCO)c2n1`: the mutagenic call (Species/Cell Type: Chinese hamster ovary (CHO) cells, Assay Type: Forward gene mutation at the HPRT locus, Assay Code: CHOT, Evaluation Type: Evaluation B (Post-1980)) was “no conclusion”. As to `c1ccc2c(c1)Nc1ccccc1S2`, under setting [8], the mutagenic call is “active; positive”.

As to `c1ccc2c(C3CO3)c3ccccc3cc2c1` (configuration not stated), the mutagenic call under setting [7] was “active; positive”. In the case of `N[C@@H](CCC(=O)N[C@@H](CS)C(=O)NCC(=O)O)C(=O)O`, the mutagenic call reads like this: (Species/Cell Type: Human lymphocytes, Assay Type: Sister-chromatid exchange (SCE) in vitro, Assay Code: SCLT, Evaluation Type: Evaluation B (Post-1980)) “no conclusion”; under setting [9], “no conclusion”; under setting [2], “active; positive”.

Consider `NCl`, for which the mutagenic call under setting [5] is given as “no conclusion”. Turning to `Cc1ccc([N+](=O)[O-])c(O)c1`, the mutagenic call (Species/Cell Type: Allium cepa, Assay Type: Chromosome aberrations, Assay Code: ALC+, Evaluation Type: Evaluation A (Pre-1980)) is “active; positive”. In the case of `c1cncc([C@@H]2CCCCN2)c1`, the mutagenic call (Species/Cell Type: Nonhuman, Assay Type: Sister-chromatid exchange (SCE) in vitro, Assay Code: SC2T, Evaluation Type: Evaluation B (Post-1980)) is reported as “no conclusion”. Regarding `O=NN1CCCC(O)C1` (configuration not stated), the mutagenic call under setting [3] is “active; positive”. Consider `COc1cc2c(c3c(C)cc4ccccc4c13)CCC2=O`, for which, under setting [3], the mutagenic call is “active; positive”. On to `CN=C(N)N`, for which the mutagenic call under setting [6] is “inactive; negative”. As to `O=S(=O)(O)c1ccc(N=Nc2cc(S(=O)(=O)O)c3ccccc3c2O)c2ccccc12`, the mutagenic call is “no conclusion” (Species/Cell Type: Bacillus subtilis (H17 vs M45), Assay Type: Rec-assay, spot test, DNA effects (bacterial DNA repair), Assay Code: REWT, Evaluation Type: Evaluation A (Pre-1980)); “inactive; negative” (Species/Cell Type: Saccharomyces cerevisiae, Assay Type: Mitotic recombination or gene conversion, Assay Code: YEC-, Evaluation Type: Evaluation A (Pre-1980)); “inactive; negative” under setting [4]. Besides, the call (Species/Cell Type: Nonhuman, Assay Code: CCG-, Evaluation Type: Evaluation A (Pre-1980)) is “inactive; negative”. Consider `O=CNc1nc(-c2cc([N+](=O)[O-])cs2)cs1`, for which the mutagenic call under setting [7] is “active; positive”. As to `COC(=O)C1=CCCN(C)C1`, the mutagenic call is “active; positive” (Species/Cell Type: Mammalian polychromatic erythrocytes, Assay Type: Micronucleus test, chromosome aberrations, Assay Code: MNT+U, Dose Response: Unconfirmed positive response, Evaluation Type: Evaluation B (Post-1980)) and “active; positive” (Species/Cell Type: Nonhuman, Assay Type: Sister-chromatid exchange (SCE) in vivo, Assay Code: SC3+, Evaluation Type: Evaluation B (Post-1980)).

`CC(=O)OC[C@H]1O[C@@H](Oc2cccc3c2C(=O)c2c(O)cccc2C3=O)[C@H](OC(C)=O)[C@@H](OC(C)=O)[C@@H]1OC(C)=O`: under setting [3], the mutagenic call is “active; positive”. With `CCOC(=O)COc1ccc(Br)cc1CSC(=N)N`, the mutagenic call (Species/Cell Type: Saccharomyces cerevisiae, Assay Type: Reverse gene mutation, Assay Code: YERT, Evaluation Type: Evaluation A (Pre-1980)) is given as “no conclusion”. As for `Cc1ccc2ccc3c4c(ccc3c2c1)C(=O)CC4`, the mutagenic call under setting [10] is on record as “no conclusion”. For `NNCCO`, the mutagenic call by setting is: under setting [11], “active; positive”; (Species/Cell Type: Escherichia coli WP2, Assay Type: Tryptophan reverse gene mutation, Assay Code: WP2+, Evaluation Type: Evaluation A (Pre-1980)) “active; positive”; (Species/Cell Type: Escherichia coli WP2 UVRA, Assay Type: Tryptophan reverse gene mutation, Assay Code: WPU+, Evaluation Type: Evaluation A (Pre-1980)) “active; positive”; under setting [2], “active; positive”; under setting [7], “active; positive”. As for `Nc1ccc(Sc2ccc(N)cc2)cc1`, under setting [1], the call is “active; positive”. As for `O=Cc1ccc(C(=O)O)cc1`, under setting [8], the mutagenic call was “active; positive”. For `CC(=O)Nc1ccccc1`, the mutagenic call runs as follows: under setting [9], “no conclusion”; under setting [10], “no conclusion”; (Species/Cell Type: Salmonella typhimurium, Assay Type: Forward and reverse gene mutation, host-mediated assay, Assay Code: HMA-, Evaluation Type: Evaluation A (Pre-1980)) “inactive; negative”. `CN(CC(C)(C)C)N=O`: the mutagenic call under setting [10] was “no conclusion”. `[Cl][Cu]`: under “Species/Cell Type: Bacillus subtilis (H17 vs M45), Assay Type: Rec-assay, spot test, DNA effects (bacterial DNA repair), Assay Code: REW-, Evaluation Type: Evaluation A (Pre-1980)”, the mutagenic call was “inactive; negative”. Take `OCC(c1ccc(Cl)cc1)c1ccc(Cl)cc1`: the mutagenic call (Species/Cell Type: Drosophila melanogaster, Assay Type: Sex-linked recessive lethal gene mutation, Assay Code: SRLT, Evaluation Type: Evaluation A (Pre-1980)) is listed as “no conclusion”. Consider `O=c1[nH]c(=O)[nH]c(=O)[nH]1`, for which the mutagenic call (Species/Cell Type: Nonhuman, Assay Type: Sister-chromatid exchange (SCE) in vitro, Assay Code: SC2-, Evaluation Type: Evaluation B (Post-1980)) was “inactive; negative”. In the case of `CN(N=O)C(=O)c1ccccc1`, the mutagenic call under setting [7] was “active; positive”.

As to `[Cl][Hg]`, the mutagenic call is “active; positive” under setting [11]; “no conclusion” (Species/Cell Type: Bacillus subtilis (H17 vs M45T), Assay Type: Rec-assay, spot test, DNA effects (bacterial DNA repair), Assay Code: REXT, Evaluation Type: Evaluation A (Pre-1980)); “active; positive” (Species/Cell Type: Nonhuman, Assay Type: Sister-chromatid exchange (SCE) in vitro, Assay Code: SC2+, Evaluation Type: Evaluation B (Post-1980)). In the case of `C#Cc1cn([C@H]2C[C@H](O)[C@@H](CO)O2)c(=O)[nH]c1=O`, the mutagenic call by setting is: (Species/Cell Type: Human lymphocytes, Assay Type: Sister-chromatid exchange (SCE) in vitro, Assay Code: SCL+, Evaluation Type: Evaluation B (Post-1980)) “active; positive”; (Species/Cell Type: Human, Assay Type: Sister-chromatid exchange (SCE) in vitro, Assay Code: SC1+, Evaluation Type: Evaluation B (Post-1980)) “active; positive”.

Regarding `COc1ccc(N)c2c1C(=O)c1ccccc1C2=O`, the mutagenic call under setting [7] was “active; positive”. Regarding `Cc1ccc2cc3c(ccc4ccccc43)c3c2c1C(O)C3O` (configuration not stated), the mutagenic call (Species/Cell Type: Mouse prostate cells, Assay Type: Cell transformation, Assay Code: CTM+D, Dose Response: With dose response, Evaluation Type: Evaluation A (Pre-1980)) was “active; positive”.

The values above are taken from PubChem BioAssay AID1259408 (Genetic Toxicology Data Bank (GENE-TOX), 2018).
